Holding throughout (assay type): biochemical
Experiment [1] has as its target human JAK1 (a.a. 837-1142) (Homo sapiens, UniProt P23458). As to the kind of experiment: In vitro JAK kinase assay (HTRF, phosphorylation of a biotinylated peptide), JAK1. The conditions noted are these: measured at 1 mM ATP. The gist of the method:
(§1)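 N-terminal His-tagged catalytic domains, baculovirus-expressed in insect cells, phosphorylated a biotinylated peptide for 1 hr at room temperature. EDTA stop was followed by SA-APC and Eu-Py20 antibody for 40 minutes, with phosphopeptide read by HTRF.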

In experiment [2] the target is human JAK1 (a.a. 837-1142). Described as above. The conditions noted are these: ratio of JAK2 IC50 to JAK1 IC50, measured at 1 mM ATP. The gist of the method: as §1
For experiment [3], the target named is Jak2 (a.a. 828-1132) (Homo sapiens (Human), UniProt O60674). The experiment is described as follows: In vitro JAK kinase assay (HTRF, phosphorylation of a biotinylated peptide), JAK2. The conditions noted are these: measured at 1 mM ATP. The gist of the method: as §1
Sequence of Jak2 (a.a. 828-1132) (O60674 828-1132): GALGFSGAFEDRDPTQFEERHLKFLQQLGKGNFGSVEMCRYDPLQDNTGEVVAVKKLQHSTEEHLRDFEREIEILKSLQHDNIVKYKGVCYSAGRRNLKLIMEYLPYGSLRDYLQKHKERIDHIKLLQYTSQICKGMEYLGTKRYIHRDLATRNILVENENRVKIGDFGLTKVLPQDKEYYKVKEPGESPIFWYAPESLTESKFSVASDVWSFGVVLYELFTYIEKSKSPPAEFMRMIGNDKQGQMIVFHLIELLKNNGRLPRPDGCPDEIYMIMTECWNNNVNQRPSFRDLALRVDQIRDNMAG

Turning to `Cc1ccc(Cl)cc1NC(=O)N1CCC(N2CC(CC#N)(n3cc(-c4ncnc5[nH]ccc45)cn3)C2)CC1` [Example 168, N-(5-chloro-2-methylphenyl)-4-{3-(cyanomethyl)-3-[4-(7H-pyrrolo[2,3-d]pyrimidin-4-yl)-1H-pyrazol-1-yl]azetidin-1-yl}piperidine-1-carboxamide], the concentration for half-maximal inhibition (IC50) (in general, the concentration needed to halve the response being measured) is at most 5 nM in experiment [1] and at most 10 nM in experiment [3]. Moreover, in experiment [2], the “IC50 Ratio JAK2/JAK1” value is on record as 2.6.

With `N#CCC1(n2cc(-c3ncnc4[nH]ccc34)cn2)CN(C2CCN(C(=O)c3ccc(-c4ccc(F)c(F)c4)c(F)c3)CC2)C1` [Example 127, (3-[4-(7H-pyrrolo[2,3-d]pyrimidin-4-yl)-1H-pyrazol-1-yl]-1-{1-[(2,3′,4′-trifluorobiphenyl-4-yl)carbonyl]piperidin-4-yl}azetidin-3-yl)acetonitrile], the IC50 fell in the range of 5 to 20 nM in experiment [1] and 10 to 50 nM in experiment [3]. Further, in experiment [2], the “IC50 Ratio JAK2/JAK1” value is recorded as 4.3.

As to `N#CCC1(n2cc(-c3ncnc4[nH]ccc34)cn2)CN(C2CCN(C(=O)c3sc4cc(F)ccc4c3Cl)CC2)C1` [Example 91, {1-{1-[(3-chloro-6-fluoro-1-benzothien-2-yl)carbonyl]piperidin-4-yl}-3-[4-(7H-pyrrolo[2,3-d]pyrimidin-4-yl)-1H-pyrazol-1-yl]azetidin-3-yl}acetonitrile], the IC50 in experiment [1] was at most 5 nM; in experiment [3] it was at most 10 nM. Further, the “IC50 Ratio JAK2/JAK1” value in experiment [2] was determined as 1.7.

Consider `N#CCC1(n2cc(-c3ncnc4[nH]ccc34)cn2)CN(C2CCN(C(=O)c3cccc(F)c3F)CC2)C1` [Example 41, {1-[1-(2,3-difluorobenzoyl)piperidin-4-yl]-3-[4-(7H-pyrrolo[2,3-d]pyrimidin-4-yl)-1H-pyrazol-1-yl]azetidin-3-yl}acetonitrile], for which the IC50 in experiment [1] is at most 5 nM; in experiment [3], at most 10 nM. In addition, the “IC50 Ratio JAK2/JAK1” value in experiment [2] is 4.9.

On to `N#CCC1(n2ccc(-c3ncnc4[nH]ccc34)c2)CN(C2CCN(C(=O)c3ccnc(C(F)(F)F)c3F)CC2)C1` [Example 261, {1-{1-[3-Fluoro-2-(trifluoromethyl)isonicotinoyl]piperidin-4-yl}-3-[3-(7H-pyrrolo[2,3-d]pyrimidin-4-yl)-1H-pyrrol-1-yl]azetidin-3-yl}acetonitrile], for which the results for the IC50 in experiment [1] and in experiment [3] were 5 to 20 nM and above 100 nM, respectively. For the same compound, in experiment [2], the “IC50 Ratio JAK2/JAK1” value amounted to 20.8.

Consider `Cc1ccc(C(=O)N2CCC(N3CC(CC#N)(n4cc(-c5ncnc6[nH]ccc56)cn4)C3)CC2)s1` [Example 80, {1-{1-[(5-methyl-2-thienyl)carbonyl]piperidin-4-yl}-3-[4-(7H-pyrrolo[2,3-d]pyrimidin-4-yl)-1H-pyrazol-1-yl]azetidin-3-yl}acetonitrile], for which the results for the IC50 in experiment [1] and in experiment [3] were at most 5 nM and at most 10 nM, respectively. Moreover, the “IC50 Ratio JAK2/JAK1” value in experiment [2] worked out at 4.1.

As to `N#CCC1(n2ccc(-c3ncnc4[nH]ccc34)c2)CN(C2CCN(C(=O)c3c(F)ccc(F)c3F)CC2)C1` [Example 270, {3-[3-(7H-pyrrolo[2,3-d]pyrimidin-4-yl)-1H-pyrrol-1-yl]-1-[1-(2,3,6-trifluorobenzoyl)piperidin-4-yl]azetidin-3-yl}acetonitrile], the results for the IC50 in experiment [1] and in experiment [3] were at most 5 nM and at most 10 nM, respectively. Moreover, the “IC50 Ratio JAK2/JAK1” value in experiment [2] turned out to be 6.1.

As to `N#CCC1(n2cc(-c3ncnc4[nH]ccc34)cn2)CN(C2CCN(C(=O)c3ccc(-c4ccc(C#N)c(F)c4)c(F)c3)CC2)C1` [Example 119, 4′-[(4-{3-(cyanomethyl)-3-[4-(7H-pyrrolo[2,3-d]pyrimidin-4-yl)-1H-pyrazol-1-yl]azetidin-1-yl}piperidin-1-yl)carbonyl]-2′,3-difluorobiphenyl-4-carbonitrile], the IC50 in experiment [1] was at most 5 nM; in experiment [3], 10 to 50 nM. In addition, in experiment [2], the “IC50 Ratio JAK2/JAK1” value came to 14.0.

As to `N#CCC1(n2cc(-c3c(F)cnc4[nH]ccc34)cn2)CN(C2CCN(C(=O)c3cncc(C(F)(F)F)n3)CC2)C1` [Example 352, [3-[4-(5-Fluoro-1H-pyrrolo[2,3-b]pyridin-4-yl)-1H-pyrazol-1-yl]-1-(1-{[6-(trifluoromethyl)pyrazin-2-yl]carbonyl}piperidin-4-yl)azetidin-3-yl]acetonitrile], the IC50 in experiment [1] was at most 5 nM; in experiment [3], 10 to 50 nM. The “IC50 Ratio JAK2/JAK1” value in experiment [2] stood at 18.8.

Regarding `N#CCC1(n2cc(-c3ncnc4[nH]ccc34)cn2)CN(C2CCN(C(=O)c3c(F)cc(C#N)cc3F)CC2)C1` [Example 83, 4-[(4-{3-(cyanomethyl)-3-[4-(7H-pyrrolo[2,3-d]pyrimidin-4-yl)-1H-pyrazol-1-yl]azetidin-1-yl}piperidin-1-yl)carbonyl]-3,5-difluorobenzonitrile], the values for the IC50 in experiment [1] and in experiment [3] were at most 5 nM and 10 to 50 nM, respectively. Moreover, the “IC50 Ratio JAK2/JAK1” value in experiment [2] amounted to 5.8.

Regarding `N#CCC1(n2cc(-c3ncnc4[nH]ccc34)cn2)CN(C2CCN(C(=O)c3ccc(-c4ccc5nccn5c4)c(F)c3)CC2)C1` [Example 135, {1-[1-(3-fluoro-4-imidazo[1,2-a]pyridin-6-ylbenzoyl)piperidin-4-yl]-3-[4-(7H-pyrrolo[2,3-d]pyrimidin-4-yl)-1H-pyrazol-1-yl]azetidin-3-yl}acetonitrile], the IC50 in experiment [1] was at most 5 nM; in experiment [3], 10 to 50 nM. Besides, the “IC50 Ratio JAK2/JAK1” value in experiment [2] stood at 7.1.

In the case of `N#CCC1(n2cc(-c3ncnc4[nH]ccc34)cn2)CN(C2CCN(C(=O)c3cc(F)cc(F)c3)CC2)C1` [Example 3, {1-[1-(3,5-difluorobenzoyl)piperidin-4-yl]-3-[4-(7H-pyrrolo[2,3-d]pyrimidin-4-yl)-1H-pyrazol-1-yl]azetidin-3-yl}acetonitrile], the IC50 in experiment [1] is at most 5 nM; in experiment [3], 10 to 50 nM. Besides, the “IC50 Ratio JAK2/JAK1” value in experiment [2] is recorded as 11.0.

On to `CC(C)COC(=O)N1CCC(N2CC(CC#N)(n3cc(-c4ncnc5[nH]ccc45)cn3)C2)CC1` [Example 390, isobutyl 4-{3-(cyanomethyl)-3-[4-(7H-pyrrolo[2,3-d]pyrimidin-4-yl)-1H-pyrazol-1-yl]azetidin-1-yl}piperidine-1-carboxylate], for which the IC50 was at most 5 nM in experiment [1] and 10 to 50 nM in experiment [3]. Further, in experiment [2], the “IC50 Ratio JAK2/JAK1” value is recorded as 8.3.

Turning to `N#CCC1(n2cc(-c3ncnc4[nH]ccc34)cn2)CN(C2CCN(C(=O)Nc3cc(F)ccc3F)CC2)C1` [Example 174, 4-{3-(cyanomethyl)-3-[4-(7H-pyrrolo[2,3-d]pyrimidin-4-yl)-1H-pyrazol-1-yl]azetidin-1-yl}-N-(2,5-difluorophenyl)piperidine-1-carboxamide], the IC50 in experiment [1] was at most 5 nM; in experiment [3] it was at most 10 nM. Besides, the “IC50 Ratio JAK2/JAK1” value in experiment [2] is 7.1.

For `CS(=O)(=O)N1CCC(N2CC(CC#N)(n3cc(-c4ccnc5[nH]ccc45)cn3)C2)CC1` [Example 351, {1-[1-(Methylsulfonyl)piperidin-4-yl]-3-[4-(1H-pyrrolo[2,3-b]pyridin-4-yl)-1H-pyrazol-1-yl]azetidin-3-yl}acetonitrile], the IC50 in experiment [1] was at most 5 nM; in experiment [3], 10 to 50 nM. Further, in experiment [2], the “IC50 Ratio JAK2/JAK1” value is recorded as 3.8.

`N#CCC1(n2cc(-c3ncnc4[nH]ccc34)cn2)CN(C2CCN(C(=O)Nc3ccc(OC(F)(F)F)cc3)CC2)C1` [Example 182, 4-{3-(cyanomethyl)-3-[4-(7H-pyrrolo[2,3-d]pyrimidin-4-yl)-1H-pyrazol-1-yl]azetidin-1-yl}-N-[4-(trifluoromethoxy)phenyl]piperidine-1-carboxamide]: the IC50 in experiment [1] fell in the range of 5 to 20 nM; in experiment [3] it was 10 to 50 nM. For the same compound, the “IC50 Ratio JAK2/JAK1” value in experiment [2] was determined as 3.7.

`N#CCC1(n2cc(-c3ncnc4[nH]ccc34)cn2)CN(C2CCN(C(=O)c3ccc(-c4ccc5cnccc5c4)c(F)c3)CC2)C1` [Example 115, {1-[1-(3-fluoro-4-isoquinolin-6-ylbenzoyl)piperidin-4-yl]-3-[4-(7H-pyrrolo[2,3-d]pyrimidin-4-yl)-1H-pyrazol-1-yl]azetidin-3-yl}acetonitrile]: the IC50 in experiment [1] is at most 5 nM; in experiment [3], 10 to 50 nM. Besides, in experiment [2], the “IC50 Ratio JAK2/JAK1” value was found to be 15.7.

With `COC(=O)c1ccc(NC(=O)N2CCC(N3CC(CC#N)(n4cc(-c5ncnc6[nH]ccc56)cn4)C3)CC2)c(F)c1` [Example 208, methyl 4-{[(4-{3-(cyanomethyl)-3-[4-(7H-pyrrolo[2,3-d]pyrimidin-4-yl)-1H-pyrazol-1-yl]azetidin-1-yl}piperidin-1-yl)carbonyl]amino}-3-fluorobenzoate], the figures for the IC50 in experiment [1] and in experiment [3] were at most 5 nM and 10 to 50 nM, respectively. Further, in experiment [2], the “IC50 Ratio JAK2/JAK1” value was determined as 4.8.

Take `N#CCC1(n2cc(-c3ncnc4[nH]ccc34)cn2)CN(C2CCN(C(=O)OCC3CCC3)CC2)C1` [Example 387, Cyclobutylmethyl 4-{3-(cyanomethyl)-3-[4-(7H-pyrrolo[2,3-d]pyrimidin-4-yl)-1H-pyrazol-1-yl]azetidin-1-yl}piperidine-1-carboxylate]: the IC50 was at most 5 nM in experiment [1] and 10 to 50 nM in experiment [3]. Further, the “IC50 Ratio JAK2/JAK1” value in experiment [2] came out at 9.7.

As for `N#CCC1(n2cc(-c3ncnc4[nH]ccc34)cn2)CN([C@@H]2CCN(C(=O)c3ccnc(C(F)(F)F)n3)C[C@@H]2F)C1` (relative stereo) [Example 362, {1-(cis-3-Fluoro-1-{[2-(trifluoromethyl)pyrimidin-4-yl]carbonyl}piperidin-4-yl)-3-[4-(7H-pyrrolo[2,3-d]pyrimidin-4-yl)-1H-pyrazol-1-yl]azetidin-3-yl}acetonitrile], the IC50 is at most 5 nM in experiment [1] and 50 to 100 nM in experiment [3]. The “IC50 Ratio JAK2/JAK1” value in experiment [2] amounted to 22.4.

Turning to `COc1cccc(F)c1C(=O)N1CCC(N2CC(CC#N)(n3cc(-c4ncnc5[nH]ccc45)cn3)C2)CC1` [Example 39, {1-[1-(2-fluoro-6-methoxybenzoyl)piperidin-4-yl]-3-[4-(7H-pyrrolo[2,3-d]pyrimidin-4-yl)-1H-pyrazol-1-yl]azetidin-3-yl}acetonitrile], the figures for the IC50 in experiment [1] and in experiment [3] were at most 5 nM and at most 10 nM, respectively. In addition, the “IC50 Ratio JAK2/JAK1” value in experiment [2] is 3.2.
